Key:
[1] = tested on: gastric cancer MGC-803 transplanted tumor; test: Antitumor rate of oral administration in mice with MGC-803 transplanted tumor; format: in vivo; settings: for Tumor inhibition rate (%): d0-d12 every 2 days, 7 times, tumor weight
Procedure: Antitumor rate of oral administration of the compound towards MGC-803 mice with transplanted tumor
After 1 week of adaptation, the mice were inoculated with gastric cancer MGC-803 tumor tissue subcutaneously. After the tumor grew for 100-300 mm^3, the animals were randomly grouped. For the drug group, each group of each compound had 6 mice, and 12 mice were in the control group. The intragastric administration was employed and the dosage of Ii, Ij, Ik and Il was 25 and 50 mg/kg. The positive control was CA4, the administration time was d0, d2, d4, d6, d8, d10, d12 days, 7 times in total. The tumor size was measured 3 times per week, together with mice weight. The mice were executed 14 days after inoculation and the tumor mass was taken and measured for its weight. The tumor inhibition rate was calculated as tumor weight inhibition rate, and the formula is tumor weight inhibition rate %=(1-treatment group average tumor weight/control group average tumor weight)×100%.

[2] = tested on: human breast cancer cell MDA-MB-231; test: In vitro antitumor activity on tumor cell lines (CCK-8 method), MDA-MB-231; format: cell-based; settings: Homo sapiens, MDA-MB-231, 72 hours
Procedure: (§1) Evaluation of In Vitro Antitumor Activity of Compounds on Multiple Tumor Cell Lines (CCK-8 Method)
(§2) Take the living cells with more than 90% cells for testing. The cell proliferation inhibition test was performed using the EnoGeneCell™ Counting Kit-8 (CK-8) cell viability test kit. The cell was digested, counted and prepared into a cell suspension with a concentration of 1×10^5/mL. 100 μL cell suspension (1×10^4 cells per hole) was added to each hole in the 96-well plate. The 96-well plate was cultured in a 37° C., 5% CO2 incubator for 24 hours. With every hole added with 100 μL respective drugged cultured medium, control groups were set up, including negative control group, solvent control group, and positive control group. Each group has 5 holes. The 96-well plates were cultured at 37° C., in 5% CO2 incubator for 72 hours. Afterward, 10 μL CCK-8 solution was added to each hole, and the culture plate was incubated in the incubator for 4 hours, and the OD value at 450 nm was determined by enzyme labeling instrument. The inhibition rate and IC50 value of these compounds on tumor cells such as human gastric cancer cell MGC-803, human liver cancer cell HepG2, human lung cancer cell A549 and human breast cancer cell MDA-MB-231 were calculated.

[3] = tested on: Hela cervical cancer cell line; test: In vitro proliferation inhibition of Hela cervical cancer cell line (MTT method); format: cell-based; settings: Homo sapiens; Hela cervical cancer cell line, 48 hours drug exposure; read-out: IC50
Procedure: Evaluation of In Vitro Antitumor Activity of Hela Cervical Cancer Tumor Cell Lines with Compounds (MTT Method)
The cells were cultured in RPMI1640 medium containing 200 mL/L fetal bovine serum so that the cells were kept at logarithmic growth. The cells were inoculated to 96-well plate, with a density of 4˜8×10^4/ml, 37° C., and pre-cultured for 24 hours with added drugs. The drugs were set at 6 concentrations, each has 3 holes. After 48 hours of consequent effect, the nutrient solution was then removed and the cells were left for air-drying. Each hole was then added with cold 500 g/L trichloroacetic acid (TCA) 50 μL (final concentration of 100 g/L). After setting for 60 minutes, it was then rinsed for 4-5 times with ionized water and dried. Each hole then was added with 4 g/L SRB 100 μL left for 30 mins. Then it was rinsed with 10 mL/L acetic acid for 4 times, dried. Then 10 mmol Tris-base 200 μL per hole was added, then shaked and mixed, subsequently, oscillating on the plate oscillator for 5 min. The enzyme-linked immunoassay was used to determine the A value. To calibrate, a blank control was used, with a wavelength of 490 nm. Tumor inhibition rate (%)=(Average A value of the control cell hole−Average A value of the drugged hole A)/Average A value of the control cell hole×100%. The positive control cell holes were CA4, CB1, and CB1N. To calculate the IC50 value, the Logit method was used according to the cell growth inhibition rate of different concentrations of the drug.

[4] = tested on: human gastric cancer cell MGC-803; test: In vitro antitumor activity on tumor cell lines (CCK-8 method), MGC-803; format: cell-based; settings: Homo sapiens, MGC-803, 72 hours
Procedure: as §1, §2

in vivo = settings: both, Kunming, mouse, po
Procedure: (§3) Acute Toxicity Test of Single Gastric Administration in Mice
(§4) Kunming mice (weight 17-22 g, equal male and female) were randomly grouped according to body weight, with 10 mice maximum per dose group in the experiment. […] Given by single intraperitoneal injection and a single intragastric injection, observations were done after 0.25 h, 0.5 h, 1 h, 2 h, 4 h, and 24 h respectively. The mortality rate was recorded. Afterward, the groups were observed once everyday, and the mortality rate was recorded for 14 days. On day 15, the living mice were sacrificed for pathological dissection.

[5] = single intragastric administration, mice
Procedure: as §3, §4

[6] = tested on: human liver cancer cell HepG2; test: In vitro antitumor activity on tumor cell lines (CCK-8 method), HepG2; format: cell-based; settings: Homo sapiens, HepG2, 72 hours
Procedure: as §1, §2

[7] = tested on: human lung cancer cell A549; test: In vitro antitumor activity on tumor cell lines (CCK-8 method), A549; format: cell-based; settings: Homo sapiens, A549, 72 hours
Procedure: as §1, §2

In the case of `COc1ccc(CCc2cc(OC)c(OC)c(OC)c2)cc1OC(=O)CCn1cc(F)c(=O)[nH]c1=O` [Compound Il, 5-(3,4,5-trimethoxyphenethyl)-2-methoxyphenyl-3-(5-fluoro-2,4-dioxo-3,4-dihydropyrimidin-1(2H)-yl)propanoate], the “Tumor inhibition rate (%)” value ([1]; 25 mg/kg intragastric) is reported as 65%, the “Tumor inhibition rate (%)” value ([1]; 50 mg/kg intragastric) is reported as 90% and the tumor size course ([1]; about 8 days after administration) is reported as “tendency to shrink”. The IC50 [2] was 0.25 nM, the IC50 [3] was 29.6 nM and the IC50 [4] was < 0.3 nM. For the same compound, the LD50 at 14 days (in vivo) was > 1000 mg/kg, the “LD50” value [5] was 1228 mg/kg and the IC50 [6] was 0.4 nM. For the same compound, the IC50 [7] was < 0.3 nM.

Reference: US11279678B2 (SHANGHAI ECUST BIOMEDICINE CO., LTD., priority 2017, dated 2022)
